Data from patent US9585929B2 (ZHEJIANG KANGLAITE GROUP CO., LTD., priority 2014, dated 2017).
In brackets after ≈: the same amount, converted by molar mass. Where a name gives a salt, the structure may show the parent alone. Marks after values point to notes of the source that are not given here.

Assays:
[1] = test system: Bcap-37 human breast cancer; test: Bcap-37 human breast cancer model in nude mice; format: in vivo, BALB/C nude mice; conditions: Docetaxel 25 mg/kg ip × 1
Procedure: The injection of the invention (10 g/100 ml), Docetaxel injection (Taxotere, 20 mg/vial) and normal saline
Bcap-37 human breast cancer: inoculated in BALB/C nude mice (SPF grade), 18-20 g, female
Tumor blocks of well-grown Bcap-37 human breast cancer were homogenized in normal saline to obtain cell suspensions in the concentration of 1-2×10^7 cells/ml. Each nude mouse was inoculated with 0.2 ml of the suspension at the right axilla subcutaneously, and the mice were grouped randomly. The administration began from the 7th day after the inoculation. 20 Days after the inoculation, the mice were sacrificed. Tumor blocks were taken out and weighed. Differences of tumor weight between each experimental group and the control group were compared, and tumor inhibition rates and Q values were calculated.

[2] = test system: FC-3M human prostate cancer; test: FC-3M human prostate cancer model in nude mice; format: in vivo, BALB/C nude mice
Procedure: The injection of the invention (10 g/100 ml), Leuprolide acetate (Lupron) and normal saline
Tumor blocks of well-grown FC-3M human prostate cancer were homogenized in normal saline (1:4). Each nude mouse was inoculated with 0.2 ml of the suspension at the right axilla subcutaneously, and the mice were grouped randomly. The administration began from the next day. 21 Days after the inoculation, the mice were sacrificed. Tumor blocks were taken out and weighed. Differences of tumor weight between each experimental group and the control group were compared and the tumor inhibition rates were calculated.

SMMC-7721 human hepatoma = test: Xenograft model of SMMC-7721 human hepatoma inoculated subcutaneously in nude mice; format: in vivo
Procedure: A549 Human lung cancer cells cryopreserved in liquid nitrogen were recovered, and incubated in a 37 incubator under 5% CO2. After being subcultured, cells in a logarithmic growth stage were distributed with normal saline to be a cell suspension in a concentration of 1-2×10^7 cells/ml. The cell suspension was inoculated into BALB/C nude mice (SPF grade, 18-20 g, 6 weeks old, male) subcutaneously at right axillary. The tumor tissues were aseptically taken from the 2nd generation of xenograft model of A549 human lung cancer in a vigorous growth stage and cut into small uniform pieces in the size of 1-2 mm^3. The right axillary of each nude mouse was inoculated one piece subcutaneously via a trocar. When the inoculated tumor could be touched, the mice were randomly grouped and administered according to the experimental design program. […] The nude mice were fed in a laminar flow rack. Tumor sizes and animal weights were observed and tested dynamically. Mice in each group were sacrificed 3 weeks later or so, and tumors were surgically removed and weighed. The inhibition rate on tumor was calculated according to the following formula: Inhibition rate %=[(Mean tumor weight of the control group−mean tumor weight of the treatment group)/mean tumor weight of the control group]×100%;
(§10) Q value of antitumor effect in drug combination was calculated according to Jin's formula: Q=Ea+b/(Ea+Eb−Ea×Eb) Wherein Ea+b=the tumor inhibition rate of drug combination, Ea or Eb=the tumor inhibition rate of drug A or drug B, respectively. If Q value=0.85-1.15, an additive effect (+) was shown; if Q value>1.15, a synergistic effect (++) was shown.

[3] = test system: PANC-1 human pancreatic cancer; test: PANC-1 human pancreatic cancer model in nude mice; format: in vivo, BALB/C nude mice; conditions: Gemcitabine 60 mg/kg iv × 1
Procedure: as §10
PANC-1 human pancreatic cancer cells: inoculated in BALB/C nude mice, 16-18 g, female
Tumor blocks of well-grown PANC-1 human pancreatic cancer were inoculated subcutaneously in 4-week-old female BALB/C nude mice. The nude mice were grouped randomly and administered. One week after the end of the administration, the mice were sacrificed and dissected. Tumor blocks were taken out and weighed. Differences of tumor weight between each experimental group and the control group were compared and the tumor inhibition rates were calculated.

S180 sarcoma = S180 sarcoma model in mice; format: in vivo, Kunmin mice
Procedure: The injection of the invention (10 g/100 ml), Cyclophosphamide (CTX), Mitoxantrone (DHAD), Mitomycin (MMC) and normal saline
Ascitic fluid of mice having well-grown […] sarcoma was diluted with normal saline (1:4) to obtain a cell suspension of about 1-2×10^7 cells/ml. Each mouse was inoculated with 0.2 ml of the suspension subcutaneously at the right axilla, and the mice were grouped randomly. The administration began from the next day according to the dosage program in Table 7. On the tenth day after the inoculation of S180, animals were sacrificed via cervical dislocation and dissected to take out the tumor block. Weights of tumor were compared and inhibition rates were calculated for each group.

[4] = test system: MDA-MB-435 human breast cancer; test: MDA-MB-435 human breast cancer model in nude mice; format: in vivo, BALB/C nude mice; conditions: Paclitaxel 50 mg/kg ip × 1
Procedure: Each nude mouse was inoculated with 0.2 ml of the suspension at the right axilla subcutaneously, and the mice were grouped randomly. The administration began from the 7th day after the inoculation. 18 Days after the inoculation, the mice were sacrificed. Tumor blocks were taken out and weighed. Differences of tumor weight between each experimental group and the control group were compared, and tumor inhibition rates and Q values were calculated.

[5] = test system: HepG-2 (human hepatic cancer cells); test: MTT inhibition of tumor cell growth in vitro; format: cell-based; conditions: HepG2
Procedure: (§1) The inhibition effects of samples on the above-mentioned cell lines were detected by using MTT method. The specific procedures were as follows:
(§2) (1) Cell culture: (a) Storaged cells were taken out from the liquid nitrogen, thawed quickly in a 37 water bath, then aseptically transferred into 6 ml of cellular medium in a 10 ml centrifugal tube, centrifuged at 1000 rpm for 5 min. The supernatant was discarded, then the precipitated cells were re-suspensed in 5-6 ml cellular media by pipetting and transferred into a flask in a 37 incubator for cell culture; (b) Next day, the flask was taken out from the incubator and the used medium was discarded, then the cells were incubated in 5-6 ml fresh medium in the 37 incubator; (c) On the third day, the flask was taken out from the incubator and the used medium was discarded, then 2-3 ml of PBS (pH7.4) was added into the flask with rocking for cleaning it and the used PBS was discarded. Such a cellular cleaning step was repeated once again. 3-5 drops of 0.25% trypsin solution were added into the flask with sloshing, thus well-distributed in it. The flask was capped and placed in a 37 incubator for about 3 min, and the separation of cells from the flask wall was observed under the microscope. 2 ml of cellular medium was added and cells were separated completely from the flask wall by pipetting, then the cell suspension was transferred into 2 separate clean flasks, each containing 5-6 ml medium. The cell suspension was well-distributed by pipetting, then the flask was placed in a 37 incubator. (d) Step (c) was repeated every other day. In the whole cultivation process, adherent cells were not allowed to grow too dense and suspension cells were always maintained at a logarithmic growth stage.
(§3) This solution was diluted in a gradient dilution with PBS to obtain a set of sample solutions in the concentration of 10 mg/ml, 5000 μg/ml, 2500 μg/ml, 1250 μg/ml, 625 μg/ml and 312.5 μg/ml, respectively.
(§4) (3) Each diluted sample solution was added into duplicated wells of a 96 well flat-bottom microplate (10 μl/well). The correspondingly diluted DMSO solutions, as controls, were added into the wells of the microplate.
(§5) (4) Cells in a logarithmic growth stage were trypsinized and washed, then re-suspended in the medium containing 10% calf serum. The number of living cells was counted in Trypan blue dye exclusion method and cell suspensions were adjusted into a density of 2×10^5 cell/ml.
(§6) (5) The cell-contained 96 well flat-bottom microplate was placed in a 37 incubator and cells were incubated under 5% CO2 for 48 h.
(§7) (6) 20 μl of 5 mg/ml MTT solution was added into each well and cells were incubated continuously in the incubator for 3-4 h.
(§8) (7) 100 μl of crystal dissolving solution was added into each well and cells were incubated continuously in the incubator overnight, so as to dissolve the resulted formazan crystals sufficiently. Then, the absorbance value was measured at 570 nm for each well.
(§9) (8) Based on absorbance values, inhibition rates on the cell growth were calculated for sample groups of various concentrations. The calculation formula was as follows: (1−mean absorbance of experimental wells/mean absorbance of control wells)×100%

[6] = test system: A549 (human lung cancer cells); test: MTT inhibition of tumor cell growth in vitro; format: cell-based
Procedure: as §1, §2, §3, §4, §5, §6, §7, §8, §9

[7] = test system: Bcap-37 (human breast cancer cells); test: MTT inhibition of tumor cell growth in vitro; format: cell-based; conditions: Bcap37
Procedure: as §1, §2, §3, §4, §5, §6, §7, §8, §9

[8] = test system: SKOV3 (human ovarian cancer cells); test: MTT inhibition of tumor cell growth in vitro; format: cell-based; conditions: SK-OV-3
Procedure: as §1, §2, §3, §4, §5, §6, §7, §8, §9

[9] = test system: H460 (human lung cancer cells); test: MTT inhibition of tumor cell growth in vitro; format: cell-based; conditions: NCI-H460
Procedure: as §1, §2, §3, §4, §5, §6, §7, §8, §9

[10] = test system: SMMC-7721 (human hepatic cancer cells); test: MTT inhibition of tumor cell growth in vitro; format: cell-based
Procedure: as §1, §2, §3, §4, §5, §6, §7, §8, §9

[11] = test system: PANC-1 (human pancreatic cancer cells); test: MTT inhibition of tumor cell growth in vitro; format: cell-based
Procedure: as §1, §2, §3, §4, §5, §6, §7, §8, §9

[12] = test system: MCF-7 (human breast cancer cells); test: MTT inhibition of tumor cell growth in vitro; format: cell-based; conditions: MCF7
Procedure: as §1, §2, §3, §4, §5, §6, §7, §8, §9

QGY human hepatoma = test: Xenograft model of QGY human hepatoma inoculated subcutaneously in nude mice
Procedure: (§11) A549 Human lung cancer cells cryopreserved in liquid nitrogen were recovered, and incubated in a 37 incubator under 5% CO2. After being subcultured, cells in a logarithmic growth stage were distributed with normal saline to be a cell suspension in a concentration of 1-2×10^7 cells/ml. The cell suspension was inoculated into BALB/C nude mice (SPF grade, 18-20 g, 6 weeks old, male) subcutaneously at right axillary. The tumor tissues were aseptically taken from the 2nd generation of xenograft model of A549 human lung cancer in a vigorous growth stage and cut into small uniform pieces in the size of 1-2 mm^3. The right axillary of each nude mouse was inoculated one piece subcutaneously via a trocar. When the inoculated tumor could be touched, the mice were randomly grouped and administered according to the experimental design program. All contacted feed, padding, cages and equipment, etc., should be autoclaved prior to use. The nude mice were fed in a laminar flow rack. Tumor sizes and animal weights were observed and tested dynamically. Mice in each group were sacrificed 3 weeks later or so, and tumors were surgically removed and weighed. The inhibition rate on tumor was calculated according to the following formula: Inhibition rate %=[(Mean tumor weight of the control group−mean tumor weight of the treatment group)/mean tumor weight of the control group]×100%;
as §10

W256 cancer sarcoma = W256 cancer sarcoma model in rats; format: in vivo, Wistar rats
Procedure: The injection of the invention (10 g/100 ml), Cyclophosphamide (CTX) and normal saline
W256 cancer sarcoma: inoculated in Wistar rats, 50-60 g, female
Ascitic fluid of rats with well-grown W256 cancer sarcoma was diluted with normal saline to obtain a cell suspension of about 1-2×10^7 cells/ml. Each rat was inoculated with 0.2 ml of the suspension at the right axilla subcutaneously. The rats were grouped randomly next day and began administration. Two weeks later, animals were sacrificed and dissected to take out the tumor block. Weights of tumor were compared between each experimental group and the control group and tumor inhibition rates were calculated.

LM-3 human hepatoma = test: Xenograft model of LM-3 human hepatoma inoculated subcutaneously in nude mice
Procedure: The injection of the invention (10 g/100 ml), cyclophosphamide (Jiangsu Hengrui Medicine Co., Ltd), blank fat emulsion and normal saline

A549 human lung cancer = test: Xenograft model of A549 human lung cancer inoculated subcutaneously in nude mice; format: in vivo, BALB/C nude mice
Procedure: as §11, §10

[13] = Gemcitabine 25 mg/kg iv × 3 q 3 d
[14] = Gemcitabine 50 mg/kg iv × 3 q 3 d
[15] = cyclophosphamide 15 mg/kg ip × 7 qd
[16] = cyclophosphamide 30 mg/kg ip × 7 qd

CC(=O)O[C@@]12CO[C@@H]1C[C@H](O)[C@@]1(C)C(=O)[C@H](O)C3=C(C)[C@@H](OC(=O)[C@H](O)[C@@H](NC(=O)OC(C)(C)C)c4ccccc4)C[C@@](O)([C@@H](OC(=O)c4ccccc4)[C@H]21)C3(C)C [Docetaxel]
Inhibition rate [1]: 56.80%
Weight of tumor x ± SD [1]: 1.27 ± 0.88 g

CCNC(=O)[C@@H]1CCCN1C(=O)[C@H](CCCNC(=N)N)NC(=O)[C@H](CC(C)C)NC(=O)[C@@H](CC(C)C)NC(=O)[C@H](Cc1ccc(O)cc1)NC(=O)[C@H](CO)NC(=O)[C@H](Cc1c[nH]c2ccccc12)NC(=O)[C@H](Cc1c[nH]cn1)NC(=O)[C@@H]1CCC(=O)N1 [Lupron, Leuprolide acetate]
Inhibition rate ([2]; Lupron 0.75 ml/kg iv × 1): 36.36** %
Weight of tumor x ± SD ([2]; Lupron 0.75 ml/kg iv × 1): 0.98 ± 0.23 g
Inhibition rate ([2]; Lupron 1.5 ml/kg iv × 1): 50.65** %
Weight of tumor x ± SD ([2]; Lupron 1.5 ml/kg iv × 1): 0.76 ± 0.14 g

Nc1ccn([C@@H]2O[C@H](CO)[C@@H](O)C2(F)F)c(=O)n1 [Gemcitabine, gemcitabine hydrochloride]
Inhibition rate (SMMC-7721 human hepatoma; [13]): 49.14%
Weight of animal end (SMMC-7721 human hepatoma; [13]): 25.1 g
Weight of animal start (SMMC-7721 human hepatoma; [13]): 20.1 g
Weight of tumor x ± SD (SMMC-7721 human hepatoma; [13]): 0.886 ± 0.24 g
Inhibition rate (SMMC-7721 human hepatoma; [14]): 87.66%
Weight of animal end (SMMC-7721 human hepatoma; [14]): 24.2 g
Weight of tumor x ± SD (SMMC-7721 human hepatoma; [14]): 0.215 ± 0.11 g
Inhibition rate [3]: 24.61%
Weight of tumor x ± SD [3]: 0.1443 ± 0.081 g

O=C1c2c(O)ccc(O)c2C(=O)c2c(NCCNCCO)ccc(NCCNCCO)c21 [DHAD, Mitoxantrone]
Inhibition rate (S180 sarcoma; DHAD 2 mg/kg ip × 2(1, 3)): 50.63** %
Weight of tumor x ± SD (S180 sarcoma; DHAD 2 mg/kg ip × 2(1, 3)): 0.78 ± 0.20 g

CO[C@@]12[C@H](COC(N)=O)C3=C(C(=O)C(C)=C(N)C3=O)N1C[C@@H]1N[C@@H]12 [MMC, Mitomycin]
Inhibition rate (S180 sarcoma; MMC 1.5 mg/kg ip × 2(1, 3)): 38.61* %
Weight of tumor x ± SD (S180 sarcoma; MMC 1.5 mg/kg ip × 2(1, 3)): 0.97 ± 0.19 g

CC(=O)O[C@H]1C(=O)[C@@]2(C)[C@H]([C@H](OC(=O)c3ccccc3)[C@]3(O)C[C@H](OC(=O)[C@H](O)[C@@H](NC(=O)c4ccccc4)c4ccccc4)C(C)=C1C3(C)C)[C@]1(OC(C)=O)CO[C@@H]1C[C@@H]2O [Taxol, paclitaxel]
Inhibition rate [4]: 62.87%
IC50 [5]: 0.45 µg/mL (≈ 0.527 µM)
IC50 [6]: 0.46 µg/mL (≈ 0.539 µM)
IC50 [7]: 0.28 µg/mL (≈ 0.328 µM)
IC50 [8]: 0.22 µg/mL (≈ 0.258 µM)
IC50 [9]: 0.49 µg/mL (≈ 0.574 µM)
IC50 [10]: 0.41 µg/mL (≈ 0.48 µM)
IC50 [11]: 0.44 µg/mL (≈ 0.515 µM)
IC50 [12]: 0.18 µg/mL (≈ 0.211 µM)

COc1cccc2c1C(=O)c1c(O)c3c(c(O)c1C2=O)C[C@@](O)(C(=O)CO)C[C@@H]3O[C@H]1C[C@H](N)[C@H](O)[C@H](C)O1 [Adriamycin]
Inhibition rate (QGY human hepatoma; Adriamycin 1 mg/kg ip × 7 qd): 38.41%
Weight of animal start (QGY human hepatoma; Adriamycin 1 mg/kg ip × 7 qd): 21.3 g
Weight of tumor x ± SD (QGY human hepatoma; Adriamycin 1 mg/kg ip × 7 qd): 0.712 ± 0.18 g
Inhibition rate (QGY human hepatoma; Adriamycin 2 mg/kg ip × 7 qd): 70.76%
Weight of tumor x ± SD (QGY human hepatoma; Adriamycin 2 mg/kg ip × 7 qd): 0.338 ± 0.17 g

O=P1(N(CCCl)CCCl)NCCCO1 (stereo not drawn) [cyclophosphamide, Cyclophosphamide]
Inhibition rate (W256 cancer sarcoma; CTX 10 mg/kg iv × 2(3, 5)): 37.83* %
Weight of tumor x ± SD (W256 cancer sarcoma; CTX 10 mg/kg iv × 2(3, 5)): 2.12 ± 1.22 g
Inhibition rate (W256 cancer sarcoma; CTX 30 mg/kg iv × 7): 87.68** %
Weight of tumor x ± SD (W256 cancer sarcoma; CTX 30 mg/kg iv × 7): 0.42 ± 0.85 g
Inhibition rate (LM-3 human hepatoma; [15]): 27.82%
Weight of animal end (LM-3 human hepatoma; [15]): 24.8 g
Weight of animal start (LM-3 human hepatoma; [15]): 20.7 g
Weight of tumor x ± SD (LM-3 human hepatoma; [15]): 1.108 ± 0.09 g
Inhibition rate (LM-3 human hepatoma; [16]): 82.74%
Weight of animal end (LM-3 human hepatoma; [16]): 25.0 g
Weight of animal start (LM-3 human hepatoma; [16]): 20.5 g
Weight of tumor x ± SD (LM-3 human hepatoma; [16]): 0.265 ± 0.12 g
Inhibition rate (S180 sarcoma; CTX 30 mg/kg ip × 2(1, 3)): 41.77* %
Weight of tumor x ± SD (S180 sarcoma; CTX 30 mg/kg ip × 2(1, 3)): 0.92 ± 0.21 g

N.N.[Cl][Pt][Cl] [Cisplatin]
Inhibition rate (A549 human lung cancer; Cisplatin 1 mg/kg ip × 7 qd): 42.13%
Weight of animal end (A549 human lung cancer; Cisplatin 1 mg/kg ip × 7 qd): 24.0 g
Weight of animal start (A549 human lung cancer; Cisplatin 1 mg/kg ip × 7 qd): 20.2 g
Weight of tumor x ± SD (A549 human lung cancer; Cisplatin 1 mg/kg ip × 7 qd): 0.765 ± 0.11 g
Inhibition rate (A549 human lung cancer; Cisplatin 2 mg/kg ip × 7 qd): 86.31%
Weight of animal end (A549 human lung cancer; Cisplatin 2 mg/kg ip × 7 qd): 23.1 g
Weight of tumor x ± SD (A549 human lung cancer; Cisplatin 2 mg/kg ip × 7 qd): 0.181 ± 0.06 g
